In patent US20190059368A1, “3,5-DIMETHOXYSTILBENE ANALOGS AND USES THEREOF” (The United States of America, as represented by the …, priority 2017, published 2019):
Converted amounts (≈) assume the structure as drawn. Read-outs that look alike come from different tables or passages of the source. Marks after values point to notes of the source that are not given here.

Assays:
[1] = system: Colletotrichum species; assay: Direct bioautography, antifungal (overall statement); format: cell-based, Colletotrichum sp.
Procedure: (§1) The analogs were tested for activity against Colletotrichum acutatum SIMMONDS, C. fragariae BROOKS, and C. gloeosporioides (PENZ) PENZ & SACC. in Penz., using a direct bioautography method as previously described by Tabanca et al. (Nat. Prod. Commun. 2008, 3, 1073) and Wang, et al. (J. Agric. Food Chem. 2013, 61, 4551). Technical grade commercial fungicide standards benomyl, cyprodinil, azoxystrobin, and captan were used at 0.9-1.61 μg/μl concentrations in 95% EtOH. After sample application, each TLC plate was subsequently sprayed with a spore suspension (3.0×10^5 spores/ml) of the fungus of interest and incubated in a moisture chamber for 4 days at 26° C. with a 12 hour photoperiod. Clear zones of fungal growth inhibition on the TLC plate indicated the presence of antifungal constituents in each extract or pure compound. The test compounds were prepared at 2 mM soln. in 95% EtOH, and 4 μl were spotted on the plates (2 μl of the positive controls).

[2] = system: C. gloeosporioides; assay: Direct bioautography, antifungal; format: cell-based, Colletotrichum gloeosporioides; settings: Colletotrichum gloeosporioides; 2 mM; 4 μl spotted (2 μl of the positive controls); average of 2 assays; read-out: zones of inhibition
Procedure: as §1

[3] = system: Colletotrichum acutatum; assay: Direct bioautography, antifungal; format: cell-based; settings: Colletotrichum acutatum; 2 mM; 4 μl spotted (2 μl of the positive controls); average of 2 assays; read-out: zones of inhibition
Procedure: as §1

[4] = system: C. fragariae; assay: Direct bioautography, antifungal; format: cell-based, Colletotrichum fragariae; settings: Colletotrichum fragariae; 2 mM; 4 μl spotted (2 μl of the positive controls); average of 2 assays; read-out: zones of inhibition
Procedure: as §1

[5] = system: Ae. aegypti larvae; assay: Larvicidal bioassay against 1-day-old Ae. aegypti larvae (screening and dose-response); format: in vivo, Aedes aegypti
Procedure: Analogs were screened for activity against Ae. aegypti larvae following a bioassay system described in Ali, A., et al. (J. Med. Entomol. 2014, 51, 824). Ae. aegypti larvae used in these studies were from a laboratory colony maintained at the Mosquito and Fly Research Unit at the Center for Medical, Agricultural and Veterinary Entomology, USDA-ARS, Gainesville, Fla. For larval bioassays, the eggs were hatched and the larvae were maintained at a temperature of 27±2° C. and 60±10% RH with a photoperiod regimen of 12:12 hour (Light:Dark). Five 1-day-old Ae. aegypti larvae were added into a droplet of H2O to each well of 24-well plates (BD Labware, Franklin Lakes, N.J., USA) by use of a disposable 22.5-cm Pasteur pipette. A quantity of 50 μl of larval diet (2% slurry of 3:2 beef liver powder (Now Foods, Bloomingdale, Ill., USA) and Brewer's yeast (Lewis Laboratories Ltd., Westport, Conn., USA) was added to each well using a Finnpipette stepper (Thermo Fisher, Vantaa, Finland). All chemicals tested were diluted in DMSO. A quantity of 11 μl of the test chemical was added to the labeled wells, while 11 μl of DMSO was added to control treatments. After the treatment application, the plates were swirled in clockwise and counterclockwise motions and front and back and side to side five times to ensure even mixing of the chemicals. Larval mortality was recorded 24 hours post-treatment. […] Three dosages, 100, 50, and 25 ppm, were used in the screening bioassay to determine the larvicidal activity and each treatment was replicated twice. […] Each treatment was replicated ten times. LC50 Values for larvicidal data were calculated using SAS, Proc Probit. Control mortality was corrected using the Abbott's formula.

[6] = system: adults of ORL and PR strains of Ae. aegypti; assay: Adult mosquito assay, ORL and PR strains; format: in vivo; settings: both strains
Procedure: (§2) Further tests were performed on compounds 11 and 12 to determine their effect on larvae and adult mosquitoes. The compounds were tested in the standard bioassays using the Orlando (ORL), pesticide-susceptible strain and the Puerto Rico (PR), pyrethroid-resistant strain of Ae. aegypti. The ORL strain has been in continuous colony since 1952 with no pesticide exposure while the resistant PR strain was colonized from egg papers collected near San Juan, PR in June, 2012. The PR strain is available as a resistant reference strain through BEIResources/CDC. Mortality was determined in the larval assays at four different concentrations (1, 0.5, 0.25, and 0.1 μg/μl) and three concentrations for adults (6.25%, 3.125%, and 1.56%). Mortality was recorded 24 h post-application, and in all assays, a negative solvent and a positive control using permethrin were utilized; tests were done in triplicate. Assays were conducted according to published procedures as described in Wanner, J. et al. (Curr. Bioact. Compd. 2015, 11, 13).

[7] = system: methicillin-resistant S. aureus ATCC 33591 (MRSA); assay: Antimicrobial microplate assay (modified CLSI); format: cell-based; settings: Staphylococcus aureus
Procedure: (§3) All organisms were obtained from the American Type Culture Collection (ATCC; Manassas, Va., USA) and included the fungi Cryptococcus neoformans ATCC 90113 and the bacteria Staphylococcus aureus ATCC 29213, methicillin-resistant S. aureus ATCC 33591 (MRSA), and Mycobacterium intracellulare ATCC 23068. All organisms were tested using modified versions of the CLSI (formerly NCCLS) methods. For all organisms excluding My. intracellulare, optical density was used to monitor growth. Medium supplemented with 5% AlamarBlue® (BioSource International, Camarillo, Calif., USA) was utilized for growth detection of My. intracellulare. Samples (dissolved in DMSO) were serially diluted in 20% DMSO/saline and transferred (10 μl) in duplicate to 96-well flat-bottom microplates. Inocula were prepared by correcting the OD630 of microbe suspensions in Sabouraud Dextrose for Cr. neoformans, cation-adjusted Mueller-Hinton (Difco) at pH 7.3 for Staphylococcus spp., and 5% AlamarBlue® (BioSource International) in Middlebrook 7H9 broth with OADC enrichment, pH=7.0 for My. intracellulare, to afford an assay volume of 200 μl and final target inocula of: Cr. neoformans.: b 1.5×10^3, My. intracellulare: 2.0×10^6, and Staphylococcus spp.,: 5.0×10^5 CFU/ml. Final sample test concentrations were 1/100th the DMSO stock concentration. […] All organisms were read at either 530 nm using the Biotek Powerwave XS plate reader (Bio-Tek Instruments, VT) or 544ex1590em (My. intracellulare) using the Polarstar Galaxy Plate Reader (BMG LabTechnologies, Germany) before and after incubation: Staphylococcus spp. at 35° C. for 16-20 h, Cr. neoformans at 35° C. for 70-74 h, and My. intracellulare at 37° C. and 10% CO2 for 70-74 h. IC50 Values (concentrations that afford 50% inhibition relative to controls) werecalculated using XLfit 4.2 software (IDBS, Alameda, Calif.) using fit model 201.

[8] = system: Staphylococcus aureus ATCC 29213; assay: Antimicrobial microplate assay (modified CLSI); format: cell-based; settings: ATCC29213, S. aureus
Procedure: as §3

[9] = system: larvae of ORL and PR strains of Ae. aegypti; format: in vivo; settings: for Percent Mortality: larvae, 24 h
Procedure: as §2

[10] = system: Mycobacterium intracellulare ATCC 23068; assay: Antimicrobial microplate assay (modified CLSI, AlamarBlue); format: cell-based; settings: ATCC23068, My. intracellulare
Procedure: as §3

[11] = system: Cryptococcus neoformans ATCC 90113; assay: Antimicrobial microplate assay (modified CLSI); format: cell-based; settings: Cryptococcus neoformans, ATCC90113; Cr. neoformans
Procedure: All organisms were obtained from the American Type Culture Collection (ATCC; Manassas, Va., USA) and included the fungi Cryptococcus neoformans ATCC 90113 and the bacteria Staphylococcus aureus ATCC 29213, methicillin-resistant S. aureus ATCC 33591 (MRSA), and Mycobacterium intracellulare ATCC 23068. All organisms were tested using modified versions of the CLSI (formerly NCCLS) methods. For all organisms excluding My. intracellulare, optical density was used to monitor growth. Medium supplemented with 5% AlamarBlue® (BioSource International, Camarillo, Calif., USA) was utilized for growth detection of My. intracellulare. Samples (dissolved in DMSO) were serially diluted in 20% DMSO/saline and transferred (10 μl) in duplicate to 96-well flat-bottom microplates. Inocula were prepared by correcting the OD630 of microbe suspensions in Sabouraud Dextrose for Cr. neoformans, cation-adjusted Mueller-Hinton (Difco) at pH 7.3 for Staphylococcus spp., and 5% AlamarBlue® (BioSource International) in Middlebrook 7H9 broth with OADC enrichment, pH=7.0 for My. intracellulare, to afford an assay volume of 200 μl and final target inocula of: Cr. neoformans.: b 1.5×10^3, My. intracellulare: 2.0×10^6, and Staphylococcus spp.,: 5.0×10^5 CFU/ml. Final sample test concentrations were 1/100th the DMSO stock concentration. Drug controls (Ciprofloxacin (ICN Biomedicals, Ohio, USA) for bacteria and Amphotericin B (ICN Biomedicals) for fungi) were included in each assay. All organisms were read at either 530 nm using the Biotek Powerwave XS plate reader (Bio-Tek Instruments, VT) or 544ex1590em (My. intracellulare) using the Polarstar Galaxy Plate Reader (BMG LabTechnologies, Germany) before and after incubation: Staphylococcus spp. at 35° C. for 16-20 h, Cr. neoformans at 35° C. for 70-74 h, and My. intracellulare at 37° C. and 10% CO2 for 70-74 h. IC50 Values (concentrations that afford 50% inhibition relative to controls) werecalculated using XLfit 4.2 software (IDBS, Alameda, Calif.) using fit model 201.

[12] = 1-day-old larvae, mortality 24 hours post-treatment

For `COc1cc(/C=C/c2ccccc2)cc(OC)c1C` [Compound 6a, (E)-1,3-dimethoxy-2-methyl-5-styrylbenzene], the “inhibitory effect on Colletotrichum species (in words)” value (“inhibitory effect” below) [1] was “strong inhibitory effect”, the zone of inhibition at 2000 µM [2] was 5.5 mm and the zone of inhibition at 2000 µM [3] was 5 mm. The zone of inhibition at 2000 µM [4] was 5 mm.

With `COc1cc(/C=C\c2ccccc2)cc(OC)c1C` [Compound 7a, (Z)-1,3-dimethoxy-2-methyl-5-styrylbenzene] the “inhibitory effect” value [1] was “strong inhibitory effect”, the zone of inhibition at 2000 µM [2] was 7 mm and the zone of inhibition at 2000 µM [3] was 8 mm. For the same compound, the zone of inhibition at 2000 µM [4] was 6.5 mm.

With `COc1cc(/C=C\c2ccc(F)cc2)cc(OC)c1C` [Compound 7e, (Z)-1,3-dimethoxy-5-(4-fluorostyryl)-2-methylbenzene] the “inhibitory effect” value [1] was “strong inhibitory effect”, the zone of inhibition at 2000 µM [2] was 6 mm and the zone of inhibition at 2000 µM [3] was 6 mm. It also gave a zone of inhibition at 2000 µM [4] of 6 mm.

With `COc1cc(/C=C\c2ccc(O)c(CC=C(C)C)c2)cc(OC)c1` [Compound 12, (Z)-4-(3,5-dimethoxystyryl)-2-(3-methylbut-2-en-1-yl)phenol] the “LC50 (LD50 converted to μM)” value ([5]; 1-day-old larvae, 24 hours) was 49.93 µM, the “LD50 (95% CI)” value [5, 12] was 16.2^b ppm and the “LD90 (95% CI)” value [5, 12] was 37.9 ppm. The “larvicidal activity (in words)” value ([5]; screening at 100, 50 and 25 ppm) was “high larvicidal activity”, the “effectiveness against adult mosquitoes (in words)” value [6] was “somewhat effective” and the IC50 [7] was 13 µM. It also gave an MIC [7] of 30.8 µM (≈ 10 µg/mL), an IC50 [8] of 17 µM and an MIC [8] of 30.8 µM (≈ 10 µg/mL). For the same compound, the “effectiveness against larvae (in words)” value ([9]; ORL and PR strains) was “highly effective”, the “Percent Mortality” value ([9]; ORL strain, 0.1 μg/μl) was 66.7 ± 23.1% and the “Percent Mortality” value ([9]; ORL strain, 0.25 μg/μl) was 93.3 ± 11.5%. The “Percent Mortality” value ([9]; ORL strain, 0.5 μg/μl) was 93.3 ± 11.5%, the “Percent Mortality” value ([9]; ORL strain, 1.0 μg/μl) was 93.3 ± 11.5% and the “Percent Mortality” value ([9]; PR strain, 0.1 μg/μl) was 73.3 ± 11.5%. The “Percent Mortality” value ([9]; PR strain, 0.25 μg/μl) was 73.3 ± 11.5%, the “Percent Mortality” value ([9]; PR strain, 0.5 μg/μl) was 93.3 ± 11.5% and the “Percent Mortality” value ([9]; PR strain, 1.0 μg/μl) was 93.3 ± 11.5%. For the same compound, the IC50 [10] was 50.4 µM, the MIC [10] was 61.7 µM (≈ 20 µg/mL) and the IC50 [11] was 41.8 µM. The MIC [11] was 61.7 µM (≈ 20 µg/mL).
